In ChEMBL document CHEMBL6177993, “De Novo 3-(Phenylcarbamoyl) Benzoate Analogues: Efficacy against Multidrug-Resistant S. aureus and Elucidation of the Biodistribution Profile” (J Med Chem, 2025):
Converted amounts (≈) assume the structure as drawn. The source made the active and inactive calls. No cut-off for these calls is given here.

How the values were obtained:
Enterococcus faecalis = assay: Antibacterial activity against Enterococcus faecalis ATCC 35550 assessed as reduction in bacterial growth measured after 18 to 24 hrs by broth microdilution method; type: functional; conditions: time 18-24 hrs
Bacillus subtilis = assay: Antibacterial activity against Bacillus subtilis IITKSM1 assessed as reduction in bacterial growth measured after 18 to 24 hrs by broth microdilution method; type: functional; conditions: time 18-24 hrs
Staphylococcus aureus [1] = assay: Antibacterial activity against Staphylococcus aureus ATCC 29213 assessed as reduction in bacterial growth measured after 18 to 24 hrs by broth microdilution method; type: functional; conditions: time 18-24 hrs
Klebsiella pneumoniae = assay: Antibacterial activity against Klebsiella pneumoniae BAA 1705 assessed as reduction in bacterial growth measured after 18 to 24 hrs by broth microdilution method; type: functional; conditions: time 18-24 hrs
Acinetobacter baumannii = assay: Antibacterial activity against Acinetobacter baumannii BAA 1605 assessed as reduction in bacterial growth measured after 18 to 24 hrs by broth microdilution method; type: functional; conditions: time 18-24 hrs
Pseudomonas aeruginosa = assay: Antibacterial activity against Pseudomonas aeruginosa ATCC 27853 assessed as reduction in bacterial growth measured after 18 to 24 hrs by broth microdilution method; type: functional; conditions: time 18-24 hrs
Escherichia coli = assay: Antibacterial activity against Escherichia coli ATCC 25922 assessed as reduction in bacterial growth measured after 18 to 24 hrs by broth microdilution method; type: functional; conditions: time 18-24 hrs
[2] = Solubility of the compound in distilled water; type: physicochemical; conditions: buffer
[3] = Solubility of the compound in DMSO/DMF; type: physicochemical
Staphylococcus aureus [4] = assay: Antibacterial activity against methicillin-sensitive Staphylococcus aureus ATCC 29213 assessed as reduction in bacterial growth measured after 18 to 24 hrs by broth microdilution method; type: functional; conditions: time 18-24 hrs
Staphylococcus aureus [5] = assay: Antibacterial activity against methicillin-resistant Staphylococcus aureus NRS 100 assessed as reduction in bacterial growth measured after 18 to 24 hrs by broth microdilution method; type: functional; conditions: time 18-24 hrs
Staphylococcus aureus [6] = assay: Antibacterial activity against methicillin-resistant Staphylococcus aureus NRS 119 assessed as reduction in bacterial growth measured after 18 to 24 hrs by broth microdilution method; type: functional; conditions: time 18-24 hrs
Staphylococcus aureus [7] = assay: Antibacterial activity against methicillin-resistant Staphylococcus aureus NRS 129 assessed as reduction in bacterial growth measured after 18 to 24 hrs by broth microdilution method; type: functional; conditions: time 18-24 hrs
Staphylococcus aureus [8] = assay: Antibacterial activity against methicillin-resistant Staphylococcus aureus NRS 186 assessed as reduction in bacterial growth measured after 18 to 24 hrs by broth microdilution method; type: functional; conditions: time 18-24 hrs
Staphylococcus aureus [9] = assay: Antibacterial activity against methicillin-resistant Staphylococcus aureus NRS 191 assessed as reduction in bacterial growth measured after 18 to 24 hrs by broth microdilution method; type: functional; conditions: time 18-24 hrs
Staphylococcus aureus [10] = assay: Antibacterial activity against methicillin-resistant Staphylococcus aureus NRS 192 assessed as reduction in bacterial growth measured after 18 to 24 hrs by broth microdilution method; type: functional; conditions: time 18-24 hrs
Staphylococcus aureus [11] = assay: Antibacterial activity against methicillin-resistant Staphylococcus aureus NRS 193 assessed as reduction in bacterial growth measured after 18 to 24 hrs by broth microdilution method; type: functional; conditions: time 18-24 hrs
Staphylococcus aureus [12] = assay: Antibacterial activity against methicillin-resistant Staphylococcus aureus NRS 194 assessed as reduction in bacterial growth measured after 18 to 24 hrs by broth microdilution method; type: functional; conditions: time 18-24 hrs
Staphylococcus aureus [13] = assay: Antibacterial activity against methicillin-resistant Staphylococcus aureus NRS 198 assessed as reduction in bacterial growth measured after 18 to 24 hrs by broth microdilution method; type: functional; conditions: time 18-24 hrs
Staphylococcus aureus [14] = assay: Antibacterial activity against vacomycin-resistant Staphylococcus aureus VRS 1 assessed as reduction in bacterial growth measured after 18 to 24 hrs by broth microdilution method; type: functional; conditions: time 18-24 hrs
Staphylococcus aureus [15] = assay: Antibacterial activity against vacomycin-resistant Staphylococcus aureus VRS 4 assessed as reduction in bacterial growth measured after 18 to 24 hrs by broth microdilution method; type: functional; conditions: time 18-24 hrs
Staphylococcus aureus [16] = assay: Antibacterial activity against vacomycin-resistant Staphylococcus aureus VRS 12 assessed as reduction in bacterial growth measured after 18 to 24 hrs by broth microdilution method; type: functional; conditions: time 18-24 hrs
[17] = Hemolytic activity in human Red blood cell at 32 ug/ml measured after 1 hrs by spectrophotometric analysis relative to control; type: toxicity, cell-based, Erythrocyte; conditions: red blood cells, at 32 µg/mL, read-out: Activity
HEK293 [18] = assay: Cytotoxicity against HEK293 cells assessed as cell viability at 1 times MIC measured after 24 hrs by Calcein-AM/PI staining based fluorescence microscopy analysis; type: toxicity; conditions: human, hek293, 24 h
HEK293 [19] = assay: Cytotoxicity against HEK293 cells assessed as cell viability measured after 72 hrs by MTT assay; type: toxicity, cell-based; conditions: human, hek293, 72 h
Staphylococcus aureus [20] = assay: Inhibition of biofilm in Staphylococcus aureus ATCC 29213 at 1 times MIC measured after 12 hrs by crystal violet staining based analysis relative to control; type: functional
Staphylococcus aureus [21] = assay: Inhibition of biofilm in Staphylococcus aureus ATCC 29213 at 0.5 times MIC measured after 12 hrs by crystal violet staining based analysis relative to control; type: functional
Staphylococcus aureus [22] = assay: Inhibition of biofilm in Staphylococcus aureus ATCC 29213 at 2 times MIC measured after 12 hrs by crystal violet staining based analysis relative to control; type: functional
Staphylococcus aureus [23] = assay: Inhibition of biofilm in Staphylococcus aureus ATCC 29213 at 2 ug/ml measured after 12 hrs by crystal violet staining based analysis; type: functional, organism-based; conditions: dose 2.0 µg/ml
Staphylococcus aureus [24] = assay: Antibacterial activity against Staphylococcus aureus ATCC 29213 measured after 20 passages; type: functional, organism-based
Cell membrane [25] = assay: Disruption of cell membrane in Staphylococcus aureus ATCC 29213 assessed as increase in red fluorescence at 5 to 10 times MIC measured after 4 hrs by DAPI and PI staining based fluorescence microscopic analysis
Cell membrane [26] = assay: Disruption of cell membrane in Staphylococcus aureus ATCC 29213 assessed as increase in PI uptake at 10 times MIC measured after 8 mins by fluorescence based microplate reader analysis
Staphylococcus aureus [27] = assay: Induction of morphological changes in Staphylococcus aureus ATCC 29213 assessed as cell shrinkage at 10 times MIC measured after 4 hrs by atomic force microscopy based analysis (reference value: 60.170 nanometer); type: functional
Staphylococcus aureus [28] = assay: Induction of morphological changes in Staphylococcus aureus ATCC 29213 assessed as cell shrinkage by measuring cells height at 10 times MIC measured after 4 hrs by atomic force microscopy based analysis (reference value: 170.8 nanometer); type: functional
Staphylococcus aureus [29] = assay: Induction of morphological changes in Staphylococcus aureus ATCC 29213 assessed as cell shrinkage by measuring cells diameter at 10 times MIC measured after 4 hrs by atomic force microscopy based analysis (reference value: 1.017 micrometer); type: functional
Staphylococcus aureus [30] = assay: Induction of morphological changes in Staphylococcus aureus ATCC 29213 assessed as cell deformation at 2 to 10 times MIC measured after 4 hrs by Scanning electron microscopy based analysis; type: functional, organism-based
Staphylococcus aureus [31] = assay: Induction of morphological changes in Staphylococcus aureus ATCC 29213 assessed as appearance of cell surface fold at 2 to 10 times MIC measured after 4 hrs by Scanning electron microscopy based analysis; type: functional, organism-based
Staphylococcus aureus [32] = assay: Induction of morphological changes in Staphylococcus aureus ATCC 29213 assessed as cell shrinkage at 2 to 10 times MIC measured after 4 hrs by Scanning electron microscopy based analysis; type: functional, organism-based
Staphylococcus aureus [33] = assay: Induction of morphological changes in Staphylococcus aureus ATCC 29213 assessed as accumulation of cellular debris at 2 to 10 times MIC measured after 4 hrs by Scanning electron microscopy based analysis; type: functional, organism-based
Staphylococcus aureus [34] = assay: Induction of morphological changes in Staphylococcus aureus ATCC 29213 assessed as leakage of subcellular components at 2 to 10 times MIC measured after 4 hrs by Scanning electron microscopy based analysis; type: functional, organism-based
Staphylococcus aureus [35] = assay: Synergistic antibacterial activity against Staphylococcus aureus ATCC 29213 assessed as fractional inhibitory concentration index in presence of vancomycin by checkerboard assay; type: functional
Staphylococcus aureus [36] = assay: Synergistic antibacterial activity against Staphylococcus aureus ATCC 29213 assessed as fractional inhibitory concentration index in presence of levofloxacin by checkerboard assay; type: functional
[37] = molecular target: T1, UDP-N-acetylenolpyruvoylglucosamine reductase (Staphylococcus aureus, UniProt P61431); assay: Binding affinity to Staphylococcus aureus MurB assessed as inhibition constant
T1 sequence (P61431 whole entry): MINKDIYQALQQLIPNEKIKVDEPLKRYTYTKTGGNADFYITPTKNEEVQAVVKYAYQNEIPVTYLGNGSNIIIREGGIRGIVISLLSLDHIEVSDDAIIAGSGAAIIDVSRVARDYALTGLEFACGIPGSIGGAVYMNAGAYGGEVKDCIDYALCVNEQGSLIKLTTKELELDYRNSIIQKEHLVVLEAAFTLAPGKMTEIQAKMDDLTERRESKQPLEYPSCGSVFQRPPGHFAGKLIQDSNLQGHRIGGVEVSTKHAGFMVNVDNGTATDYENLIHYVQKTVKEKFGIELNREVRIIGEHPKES

[38] = Binding affinity to Staphylococcus aureus MurA assessed as inhibition constant
[39] = Binding affinity to Staphylococcus aureus MurZ assessed as inhibition constant
Staphylococcus aureus [40] = assay: Drug resistance, ratio of MIC for Staphylococcus aureus ATCC 29213 after 20 passages exposure to MIC for Staphylococcus aureus ATCC 29213 during first exposure; type: functional

CC(C)(C)c1cc(C(c2ccccc2)c2ccccc2)c(NC(=O)c2cccc(C(=O)O)c2)c(C(c2ccccc2)c2ccccc2)c1
MIC (Enterococcus faecalis): 1 µg/mL (≈ 0.00159 mM) | MIC (Bacillus subtilis): 1 µg/mL (≈ 0.00159 mM) | MIC (Staphylococcus aureus [1]): 2 µg/mL (≈ 0.00318 mM) | MIC (Klebsiella pneumoniae): > 64 µg/mL | MIC (Acinetobacter baumannii): > 64 µg/mL | MIC (Pseudomonas aeruginosa): > 64 µg/mL | MIC (Escherichia coli): > 64 µg/mL | solubility [2]: Insoluble | solubility [3]: 660 mg/mL (≈ 1050 mM) | MIC (Staphylococcus aureus [4]): 4 µg/mL (≈ 0.00635 mM) | MIC (Staphylococcus aureus [5]): 4 µg/mL (≈ 0.00635 mM) | MIC (Staphylococcus aureus [6]): 4 µg/mL (≈ 0.00635 mM) | MIC (Staphylococcus aureus [7]): 4 µg/mL (≈ 0.00635 mM) | MIC (Staphylococcus aureus [8]): 4 µg/mL (≈ 0.00635 mM) | MIC (Staphylococcus aureus [9]): 4 µg/mL (≈ 0.00635 mM) | MIC (Staphylococcus aureus [10]): 4 µg/mL (≈ 0.00635 mM) | MIC (Staphylococcus aureus [11]): 4 µg/mL (≈ 0.00635 mM) | MIC (Staphylococcus aureus [12]): 4 µg/mL (≈ 0.00635 mM) | MIC (Staphylococcus aureus [13]): 4 µg/mL (≈ 0.00635 mM) | MIC (Staphylococcus aureus [14]): 4 µg/mL (≈ 0.00635 mM) | MIC (Staphylococcus aureus [15]): 4 µg/mL (≈ 0.00635 mM) | MIC (Staphylococcus aureus [16]): 4 µg/mL (≈ 0.00635 mM) | hemolysis at 1 h, 32 ug/ml [17]: ~25% | Activity (HEK293 [18]): Toxic | Activity (HEK293 [19]): Toxic | inhibition (INH) (Staphylococcus aureus [20]): 95% | inhibition (INH) (Staphylococcus aureus [21]): >50% | inhibition (INH) (Staphylococcus aureus [22]): 95% | inhibition (Staphylococcus aureus [23]): Active | Activity (Staphylococcus aureus [24]): Active | Activity (Cell membrane [25]): Active | Activity (Cell membrane [26]): Active | Activity (Staphylococcus aureus [27]): 53.464 nm | Activity (Staphylococcus aureus [28]): 105.1 nm | Activity (Staphylococcus aureus [29]): 0.68 um | Activity (Staphylococcus aureus [30]): Active | Activity (Staphylococcus aureus [31]): Active | Activity (Staphylococcus aureus [32]): Active | Activity (Staphylococcus aureus [33]): Active | Activity (Staphylococcus aureus [34]): Active | fractional inhibitory concentration index (FICI) (Staphylococcus aureus [35]): 0.258 | fractional inhibitory concentration index (FICI) (Staphylococcus aureus [36]): 0.75 | Ki [37]: 2.52 µM | Ki [38]: 117 µM | Ki [39]: 133 µM

CCn1cc(C(=O)O)c(=O)c2cc(F)c(N3CCNCC3)cc21 [NORFLOXACIN]
Ratio (Staphylococcus aureus [40]): 64
